“Also recorded” adds a separate entry of the source.
How the values were obtained:
E. coli MurE = E. coli MurE (Escherichia coli, UniProt P22188); experiment: MurE inhibition assay (Malachite green); type: biochemical
Method: (§1) Inhibition of the Mur ligases was determined using the Malachite green assay, with slight modifications. […] In all cases, the final concentration of DMSO was 5% (v/v).
(§2) After incubation for 15 min at 37 °C, the enzyme reaction was terminated by the addition of 100 µM Biomol green reagent®, and the absorbance was measured at 650 nm after 5 min. Experiments to determine the RA run in triplicate. Residual activities were calculated with respect to control assays without the tested compounds, but with the 5% DMSO carrier. The IC50 values were determined by measuring the residual activities at seven different compound concentrations, and they represent the concentration of the compound at which the residual activity was 50%. IC50 values were obtained by plotting the residual enzyme activities against the applied inhibitor concentrations, fitting the experimental data to the 4-parameter Hill equation: Y=Bottom-Top-Bottom/1+10^logIC50-X×HillSlope , where X is the logarithm of the inhibitor concentration, and Y is the residual activity. The IC50 values were determined in three independent experiments. GraphPad Prism 8.2.0 (GraphPad Software, San Diego, CA, USA) was used for the fitting procedure.
(§3) The assay detects the phosphate formed in each enzyme reaction. To avoid any possibility of the compounds inhibiting the enzymes due to aggregation, a detergent (0.005% Triton-X114) was added to the test system.

[1] = Solubility under the Mur ligase assay conditions; type: physicochemical
E. coli MurD = E. coli MurD (Escherichia coli, UniProt P14900); experiment: MurD inhibition assay (Malachite green); type: biochemical; conditions: 0.25 h; residual activity at 100 µM compound; mean ± SD of three independent experiments; read-out: RA (%) @ 100 µM MurD
Method: as §1, §2, §3

E. coli MurF = E. coli MurF (Escherichia coli, UniProt P11880); experiment: MurF inhibition assay (Malachite green); type: biochemical; conditions: seven compound concentrations, 4-parameter Hill fit; three independent experiments
Method: as §1, §2, §3

S. aureus (ATCC 29,213) = experiment: Antibacterial assay, broth microdilution MIC; type: cell-based; conditions: broth microdilution; for MIC: Staphylococcus aureus, ATCC29, 20 h at 35 °C, read-out: MIC S.aureus
Method: (§4) Antimicrobial testing was performed by the broth microdilution method in 96-well plates following the Clinical and Laboratory Standards Institute guidelines and European Committee on Antimicrobial Susceptibility Testing recommendations (Clinical and Laboratory Standards Institute). Bacterial suspensions equivalent to 0.5 McFarland turbidity standard were diluted with cation-adjusted Mueller–Hinton broth with TES buffering (ThermoFisher Scientific), for a final inoculum of 10^5 CFU/ mL. Compounds dissolved in DMSO and the inoculum were mixed and incubated for 20 h at 35 °C. […] The MICs were determined against two reference bacterial strains, S. aureus (ATCC 29,213) and E. coli (ATCC 25,922). Tetracycline was used as the positive control on every assay plate, with MICs of 0.5 and 1 µg/mL for S. aureus and E. coli, respectively. All MICs were determined in three independent experiments.

E. coli (ATCC 25,922) = experiment: Antibacterial assay, broth microdilution MIC; type: cell-based; conditions: broth microdilution; for MIC: Escherichia coli, ATCC25, 20 h at 35 °C, read-out: MIC E.coli
Method: as §4

E. coli MurC = E. coli MurC (Escherichia coli, UniProt P17952); experiment: MurC inhibition assay (Malachite green); type: biochemical; conditions: 0.25 h; residual activity at 100 µM compound; mean ± SD of three independent experiments; read-out: RA (%) @ 100 µM MurC
Method: as §1, §2, §3

MurF from E. coli = MurF from E. coli (Escherichia coli, UniProt P11880); experiment: Steady-state kinetic analysis of compound 21; type: biochemical
Method: For compound 21, Ki values were determined against MurF from E. coli. Ki determinations were performed under similar conditions to those described for the inhibition assay, where the different concentrations of one substrate and a fixed concentration of the other two were used. First, the concentration of UM3DAP was varied (25, 50, 100, 200 µM) at fixed ATP (500 µM) and D-Ala-D-Ala (600 µM)), then the concentration of D-Ala-D-Ala was varied (50, 100, 200, 400, 600 µM) at fixed ATP (500 µM) and UM3DAP (100 µM), and finally, the concentration of ATP was varied (50, 100, 350, 500 µM) at fixed UM3DAP (100 µM) and D-Ala-D-Ala (600 µM). The concentrations of 21 were 0, 25, 50, 75, 100, 200, 350 and 500 µM and the concentration of the MurF was 20 nM. After a 15 min incubation, 100 µM Biomol green reagent® was added, and the absorbance was read at 650 nm after 5 min. All experiments were run in triplicate.
The data were analysed using the SigmaPlot 12.0 software. The initial velocities were fitted to competitive, non-competitive, uncompetitive and mixed enzyme inhibition. The Ki and mode of inhibition from the best ranking model were used, as provided by the software.

MurF from E. coli, sequence (P11880 whole entry): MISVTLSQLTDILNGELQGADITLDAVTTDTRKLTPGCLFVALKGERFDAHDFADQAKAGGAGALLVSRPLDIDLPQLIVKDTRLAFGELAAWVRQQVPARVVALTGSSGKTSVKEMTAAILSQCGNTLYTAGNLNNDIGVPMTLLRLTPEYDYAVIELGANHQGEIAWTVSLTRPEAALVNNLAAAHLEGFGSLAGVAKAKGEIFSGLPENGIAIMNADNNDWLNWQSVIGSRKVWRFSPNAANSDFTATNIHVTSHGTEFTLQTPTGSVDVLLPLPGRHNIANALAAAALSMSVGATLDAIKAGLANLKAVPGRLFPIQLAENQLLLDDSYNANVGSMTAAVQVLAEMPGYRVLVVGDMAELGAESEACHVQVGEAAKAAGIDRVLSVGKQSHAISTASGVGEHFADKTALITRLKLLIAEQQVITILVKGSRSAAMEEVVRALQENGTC
E. coli MurD, sequence (P14900 whole entry): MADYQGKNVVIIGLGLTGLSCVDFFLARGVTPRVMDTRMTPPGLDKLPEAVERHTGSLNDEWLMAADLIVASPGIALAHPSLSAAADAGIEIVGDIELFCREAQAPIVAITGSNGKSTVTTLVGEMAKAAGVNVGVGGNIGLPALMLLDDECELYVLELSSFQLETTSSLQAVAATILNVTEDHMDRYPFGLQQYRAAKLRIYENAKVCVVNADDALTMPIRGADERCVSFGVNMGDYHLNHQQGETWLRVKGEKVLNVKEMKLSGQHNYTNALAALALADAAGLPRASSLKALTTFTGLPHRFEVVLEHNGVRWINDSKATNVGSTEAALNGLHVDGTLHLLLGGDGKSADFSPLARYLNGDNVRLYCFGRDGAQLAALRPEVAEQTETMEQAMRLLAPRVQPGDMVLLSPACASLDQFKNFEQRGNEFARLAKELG
E. coli MurF, sequence (P11880 whole entry): as the sequence (P11880 whole entry) above
E. coli MurC, sequence (P17952 whole entry): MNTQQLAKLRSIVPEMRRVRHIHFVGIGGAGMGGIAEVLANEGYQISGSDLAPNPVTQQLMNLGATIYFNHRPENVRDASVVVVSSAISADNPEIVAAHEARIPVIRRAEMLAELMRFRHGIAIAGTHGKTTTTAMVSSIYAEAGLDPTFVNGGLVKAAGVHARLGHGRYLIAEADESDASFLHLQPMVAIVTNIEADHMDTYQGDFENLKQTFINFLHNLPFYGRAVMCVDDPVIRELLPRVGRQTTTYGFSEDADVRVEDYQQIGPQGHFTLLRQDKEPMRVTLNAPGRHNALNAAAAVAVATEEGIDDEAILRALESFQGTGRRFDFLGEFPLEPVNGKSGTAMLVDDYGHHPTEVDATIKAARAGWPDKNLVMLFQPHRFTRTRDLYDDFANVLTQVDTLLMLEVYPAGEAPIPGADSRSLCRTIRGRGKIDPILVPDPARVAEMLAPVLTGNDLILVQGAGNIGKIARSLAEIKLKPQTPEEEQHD
E. coli MurE, sequence (P22188 whole entry): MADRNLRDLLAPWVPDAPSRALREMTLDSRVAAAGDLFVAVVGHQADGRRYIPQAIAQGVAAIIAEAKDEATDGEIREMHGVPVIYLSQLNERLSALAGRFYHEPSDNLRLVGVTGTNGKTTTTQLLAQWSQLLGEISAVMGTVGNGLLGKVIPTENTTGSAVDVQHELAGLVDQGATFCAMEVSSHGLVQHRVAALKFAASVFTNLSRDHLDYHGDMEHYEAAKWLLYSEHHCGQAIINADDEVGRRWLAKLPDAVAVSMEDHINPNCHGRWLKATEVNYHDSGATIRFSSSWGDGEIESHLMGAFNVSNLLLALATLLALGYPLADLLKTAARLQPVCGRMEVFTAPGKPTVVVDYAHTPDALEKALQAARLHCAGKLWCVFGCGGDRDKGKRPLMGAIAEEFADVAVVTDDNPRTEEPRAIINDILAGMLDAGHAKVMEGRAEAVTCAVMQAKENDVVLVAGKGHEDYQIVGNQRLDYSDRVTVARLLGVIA

Q: What does the source list for Oc1cc(O)c2c(c1)O[C@H](c1ccc(O)c(O)c1)[C@@H](O)[C@H]2O [Compound 20, Leucocyanidin]?
A: IC50 (E. coli MurE; seven compound concentrations, 4-parameter Hill fit, three independent experiments): 164 ± 14 µM; Solubility under the assay conditions (in words) [1]: poor solubility; remaining activity at 100 µM (E. coli MurD): 91 ± 9%; IC50 (E. coli MurF): 28 ± 8 µM; MIC (S. aureus (ATCC 29,213)): > 250 µM; MIC (E. coli (ATCC 25,922)): > 250 µM; remaining activity at 100 µM (E. coli MurC): 95 ± 8%

Q: Which results are given for Oc1cc(O)c2c(c1)O[C@H](c1ccc(O)c(O)c1)[C@H](O)C2 [Compound 21, (–)-epicatechin]?
A: Ki (MurF from E. coli; substrate ATP varied, UM3DAP 100 µM, D-Ala-D-Ala 600 µM fixed): 28.5 ± 2.7 µM; Ki (MurF from E. coli; substrate D-Ala-D-Ala varied, ATP 500 µM, UM3DAP 100 µM fixed): 58.2 ± 5.1 µM; Ki (MurF from E. coli; substrate UM3DAP varied, ATP 500 µM, D-Ala-D-Ala 600 µM fixed): 70.1 ± 4 µM; Mechanism of inhibition (MurF from E. coli; with respect to ATP): mixed inhibition; also recorded: mixed inhibitor; also recorded: Mixed (partial); α (mixed partial inhibition model) (MurF from E. coli; with respect to ATP): 1.5; β (mixed partial inhibition model) (MurF from E. coli; with respect to ATP): 0.4545; Mechanism of inhibition (MurF from E. coli; with respect to ATP, listed as (–)-epicatechin): mixed type inhibition; Mechanism of inhibition (MurF from E. coli; with respect to D-Ala-D-Ala): uncompetitive inhibitor; also recorded: Uncompetitive (partial); Mechanism of inhibition (MurF from E. coli; with respect to D-Ala-D-Ala, listed as (–)-epicatechin): uncompetitive inhibition; Mechanism of inhibition (MurF from E. coli; with respect to UM3DAP): uncompetitive inhibitor; also recorded: Uncompetitive (partial); Mechanism of inhibition (MurF from E. coli; with respect to UM3DAP, listed as (–)-epicatechin): uncompetitive inhibition; remaining activity at 100 µM (E. coli MurE; 0.25 h, residual activity at 100 µM compound, mean ± SD of three independent experiments, read-out: RA (%) @ 100 µM MurE): 79 ± 8%; remaining activity at 100 µM (E. coli MurD): 94 ± 9%; IC50 (E. coli MurF): 92 ± 13 µM; MIC (S. aureus (ATCC 29,213)): > 250 µM; Inhibition of growth of S. aureus (in words) (S. aureus (ATCC 29,213)): inactive; MIC (E. coli (ATCC 25,922)): > 250 µM; Inhibition of growth of E. coli (in words) (E. coli (ATCC 25,922)): inactive; remaining activity at 100 µM (E. coli MurC): 92 ± 8%

— publication PMC10618370, “Mur ligase F as a new target for the flavonoids quercitrin, myricetin, and (–)-epicatechin” (Journal of Computer-Aided Molecular Design, 2023)
